Results: ChEMBL document CHEMBL5532665 (J Med Chem, 2024)
Activity calls are given as the source filed them. The calls are words filed in the database; no cut-off is given here.

What was measured:
Mus musculus [1] = test: Antinociceptive activity in Kunming mouse model at 1416 nmol/kg, sc in presence of beta-FNA by tail-flick test; type: functional, organism-based
Mus musculus [2] = test: Antinociceptive activity in Kunming mouse model at 1416 nmol/kg, sc in presence of nor-BNI by tail-flick test; type: functional, organism-based
Mu-type opioid receptor [3] = target: T1, Mu-type opioid receptor (Homo sapiens, UniProt P35372); test: Agonist activity at human MOR expressed in CHO-K1 cells co-expressing G-alpha15 by calcium mobilization assay relative to control; type: functional, cell-based; conditions: filed as agonist
T1 sequence (P35372 whole entry): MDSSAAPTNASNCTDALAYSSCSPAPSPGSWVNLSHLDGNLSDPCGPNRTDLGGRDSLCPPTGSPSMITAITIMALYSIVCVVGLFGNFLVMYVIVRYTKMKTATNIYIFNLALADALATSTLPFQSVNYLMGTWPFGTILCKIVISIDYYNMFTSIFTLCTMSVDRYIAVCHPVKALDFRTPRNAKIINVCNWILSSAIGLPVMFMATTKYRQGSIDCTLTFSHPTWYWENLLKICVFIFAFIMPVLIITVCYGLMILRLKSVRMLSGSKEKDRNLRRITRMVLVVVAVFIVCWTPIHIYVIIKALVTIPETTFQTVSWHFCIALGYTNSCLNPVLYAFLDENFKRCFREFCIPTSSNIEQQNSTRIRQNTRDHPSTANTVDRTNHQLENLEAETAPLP

[4] = target: T2, Kappa-type opioid receptor (Homo sapiens, UniProt P41145); test: Agonist activity at human KOR expressed in CHO-K1 cells co-expressing G-alpha15 by calcium mobilization assay relative to control; type: functional, cell-based; conditions: filed as agonist
T2 sequence (P41145 whole entry): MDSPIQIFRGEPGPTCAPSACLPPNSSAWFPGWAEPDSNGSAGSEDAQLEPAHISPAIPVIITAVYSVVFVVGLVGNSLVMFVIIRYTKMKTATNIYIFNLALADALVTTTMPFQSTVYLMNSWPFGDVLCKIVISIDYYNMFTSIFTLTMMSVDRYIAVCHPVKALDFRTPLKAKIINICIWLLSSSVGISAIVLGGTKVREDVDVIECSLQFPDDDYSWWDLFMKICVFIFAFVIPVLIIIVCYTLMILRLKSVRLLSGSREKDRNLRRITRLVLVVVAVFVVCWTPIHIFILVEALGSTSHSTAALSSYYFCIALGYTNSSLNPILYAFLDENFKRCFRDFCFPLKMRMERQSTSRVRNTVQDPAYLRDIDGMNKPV

[5] = target: T3, Delta-type opioid receptor (Homo sapiens, UniProt P41143); test: Agonist activity at human DOR expressed in CHO-K1 cells co-expressing G-alpha15 by calcium mobilization assay relative to control; type: functional, cell-based; conditions: filed as agonist
T3 sequence (P41143 whole entry): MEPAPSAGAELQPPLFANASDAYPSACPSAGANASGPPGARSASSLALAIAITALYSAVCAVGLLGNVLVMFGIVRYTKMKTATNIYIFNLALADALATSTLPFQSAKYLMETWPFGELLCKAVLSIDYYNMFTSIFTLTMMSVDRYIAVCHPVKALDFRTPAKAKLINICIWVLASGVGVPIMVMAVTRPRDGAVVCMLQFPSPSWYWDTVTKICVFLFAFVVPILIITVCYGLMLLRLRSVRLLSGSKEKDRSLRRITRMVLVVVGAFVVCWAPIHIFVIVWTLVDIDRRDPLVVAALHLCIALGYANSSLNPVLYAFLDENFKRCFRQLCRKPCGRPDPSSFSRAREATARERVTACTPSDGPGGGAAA

Mus musculus [6] = test: Antinociceptive activity in Kunming mouse model at 1416 nmol/kg, sc pretreated with NALM intracerebroventricularly followed by compound administration by tail-flick test; type: functional, organism-based
Mus musculus [7] = test: Antinociceptive activity in Kunming mouse model at 1416 nmol/kg, sc in presence of NTI by tail-flick test; type: functional, organism-based
Mus musculus [8] = test: Antinociceptive activity in Kunming mouse model at 1416 nmol/kg, sc pretreated with NALM subcutaneously followed by compound administration by tail-flick test; type: functional, organism-based
Mus musculus [9] = test: Antinociceptive activity in Kunming mouse model at 13.9 nmol/kg, sc in presence of beta-FNA by tail-flick test; type: functional, organism-based
Mus musculus [10] = test: Antinociceptive activity in Kunming mouse model assessed as latency of tail withdrawal at 13.9 nmol/kg, sc measured for 30 mins by tail-flick test relative to control; type: functional; conditions: 0.5 h
Mus musculus [11] = test: Antinociceptive activity in Kunming mouse model assessed as latency of tail withdrawal at 13.9 nmol/kg, sc measured for 60 mins by tail-flick test relative to control; type: functional; conditions: 1 h
Mus musculus [12] = test: Induction of physical dependence in Kunming mouse model assessed as jumping behavior at 5.5 to 275 nmol/kg, sc administered as 7 escalating doses with 8 hr-intervals in-between followed by Nal administration post-2 hrs of last compound dose and further measured for 30 mins by withdrawal assay; type: functional, organism-based; conditions: dose 5.5-275 nmol/kg, time 50.5 hrs
Mus musculus [13] = test: Antinociceptive activity in Kunming mouse model at 13.9 nmol/kg, sc pretreated with NALM subcutaneously followed by compound administration by tail-flick test; type: functional, organism-based
Mus musculus [14] = test: Antinociceptive activity in Kunming mouse model at 13.9 nmol/kg, sc pretreated with NALM intracerebroventricularly followed by compound administration by tail-flick test; type: functional, organism-based
Mus musculus [15] = test: Antinociceptive activity in Kunming mouse model assessed as increase in analgesic effect at 0.14 to 13.9 nmol/kg, sc measured for 180 to 360 mins by tail-flick test; type: functional, organism-based; conditions: dose 0.14-13.9 nmol/kg, time 180-360 min
Mus musculus [16] = test: Rewarding affect in Kunming mouse model at 139 nmol/kg, sc pre-exposed to place conditioning for 3 days followed by compound administration and further re-exposed to place conditioning measured on day 5 by unbiased CPP method; type: functional, organism-based; conditions: time 2.0 day
[17] = Stability in mouse plasma assessed as half life at 0.01 mol/L measured for 72 hrs by RP-HPLC analysis; type: ADME, cell-free
Mus musculus [18] = test: Antinociceptive activity in Kunming mouse model at 13.9 nmol/kg, sc in presence of nor-BNI by tail-flick test; type: functional, organism-based
Mus musculus [19] = test: Antinociceptive activity in Kunming mouse model administered subcutaneously measured for 5 to 15 mins by acetic acid-induced writhing test; type: functional; conditions: route sc, time 5-15 min
Mus musculus [20] = test: Antinociceptive activity in Kunming mouse model assessed as latency of tail withdrawal at 13.9 nmol/kg, sc measured for 10 mins by tail-flick test relative to control; type: functional
[21] = target: T3, Delta-type opioid receptor; test: Agonist activity at human DOR expressed in CHO-K1 cells co-expressing G-alpha15 by calcium mobilization assay; type: functional, cell-based; conditions: cho-k1
Mus musculus [22] = test: Antinociceptive activity in Kunming mouse model assessed as latency of tail withdrawal at 13.9 nmol/kg, sc measured for 120 mins by tail-flick test relative to control; type: functional; conditions: 2 h
Mus musculus [23] = test: Antinociceptive activity in Kunming mouse model administered subcutaneously by tail-flick test; type: functional; conditions: route sc
[24] = target: T2, Kappa-type opioid receptor; test: Agonist activity at human KOR expressed in CHO-K1 cells co-expressing G-alpha15 by calcium mobilization assay; type: functional, cell-based; conditions: cho-k1
Mu-type opioid receptor [25] = target: T1, Mu-type opioid receptor; test: Agonist activity at human MOR expressed in CHO-K1 cells co-expressing G-alpha15 by calcium mobilization assay; type: functional, cell-based; conditions: cho-k1
Mus musculus [26] = test: Antinociceptive activity in Kunming mouse model at 13.9 nmol/kg, sc in presence of NTI by tail-flick test; type: functional, organism-based
Mus musculus [27] = test: Antinociceptive activity in Kunming mouse model at 1.4 nmol/kg, sc pretreated with NALM intracerebroventricularly followed by compound administration by tail-flick test; type: functional, organism-based
Mus musculus [28] = test: Antinociception activity in Kunming mouse model assessed as analgesic effect at 1.4 nmol/kg, sc administered daily measured for 8 days in presence of NTI by tail-flick test; type: functional, organism-based; conditions: time 8.0 day
Mus musculus [29] = test: Induction of physical dependence in Kunming mouse model assessed as jumping behavior at 0.2 to 10 nmol/kg, sc administered as 7 escalating doses with 8 hr-intervals in-between followed by Nal administration post-2 hrs of last compound dose and further measured for 30 mins by withdrawal assay; type: functional, organism-based; conditions: dose 0.2-10 nmol/kg, time 50.5 hrs
Mus musculus [30] = test: Antinociceptive activity in Kunming mouse model at 1.4 nmol/kg, sc pretreated with NALM subcutaneously followed by compound administration by tail-flick test; type: functional, organism-based
Mus musculus [31] = test: Antinociception activity in Kunming mouse model assessed as analgesic effect at 1.4 nmol/kg, sc administered daily measured for 8 days by tail-flick test; type: functional, organism-based; conditions: time 8.0 day
Mus musculus [32] = test: Antinociceptive activity in Kunming mouse model at 1.4 nmol/kg, sc in presence of nor-BNI by tail-flick test; type: functional, organism-based
Mus musculus [33] = test: Antinociceptive activity in Kunming mouse model assessed as increase in analgesic effect at 0.014 to 1.4 nmol/kg, sc measured for 180 to 360 mins by tail-flick test; type: functional, organism-based; conditions: dose 0.014-1.4 nmol/kg, time 180-360 min
Mus musculus [34] = test: Rewarding affect in Kunming mouse model at 13.8 nmol/kg, sc pre-exposed to place conditioning for 3 days followed by compound administration and further re-exposed to place conditioning measured on day 5 by unbiased CPP method; type: functional, organism-based; conditions: time 2.0 day
Mus musculus [35] = test: Antinociceptive activity in Kunming mouse model at 1.4 nmol/kg, sc in presence of beta-FNA by tail-flick test; type: functional, organism-based
Mus musculus [36] = test: Antinociceptive activity in Kunming mouse model at 1.4 nmol/kg, sc in presence of NTI by tail-flick test; type: functional, organism-based
[37] = target: T2, Kappa-type opioid receptor; test: Agonist activity at human KOR expressed in CHO-K1 cells co-expressing G-alpha15 upto 100 uM by calcium mobilization assay; type: functional, cell-based
Mus musculus [38] = test: Antinociceptive activity in Kunming mouse model at 132.2 nmol/kg, sc in presence of beta-FNA by tail-flick test; type: functional, organism-based
Mus musculus [39] = test: Antinociceptive activity in Kunming mouse model at 132.2 nmol/kg, sc in presence of nor-BNI by tail-flick test; type: functional, organism-based
Mus musculus [40] = test: Antinociceptive activity in Kunming mouse model at 132.2 nmol/kg, sc pretreated with NALM subcutaneously followed by compound administration by tail-flick test; type: functional, organism-based
Mus musculus [41] = test: Antinociceptive activity in Kunming mouse model at 132.2 nmol/kg, sc pretreated with NALM intracerebroventricularly followed by compound administration by tail-flick test; type: functional, organism-based
Mus musculus [42] = test: Antinociceptive activity in Kunming mouse model at 132.2 nmol/kg, sc in presence of NTI by tail-flick test; type: functional, organism-based

SMILES: NC(=O)[C@@H]1CCCN1C(=O)[C@H]1CC(=O)NCCCC[C@@H](NC(=O)[C@@H](N)Cc2ccc(O)cc2)C(=O)NCC(=O)N[C@@H](Cc2ccccc2)C(=O)N1
- Activity (Mus musculus [1]): inactive
- Activity (Mus musculus [2]): inactive
- Emax (Mu-type opioid receptor [3]): 109%
- Emax [4]: 103%
- Emax [5]: 107%
- Activity (Mus musculus [6]): Active
- Activity (Mus musculus [7]): Active
- Activity (Mus musculus [8]): inactive

SMILES: NC(=O)[C@@H]1CCCCN1C(=O)[C@H]1CC(=O)NCCCC[C@@H](NC(=O)[C@@H](N)Cc2ccc(O)cc2)C(=O)NCC(=O)N[C@@H](Cc2ccccc2)C(=O)N1
- Activity (Mus musculus [9]): inactive
- MPE (Mus musculus [10]): 91.2%
- MPE (Mus musculus [11]): 86.9%
- Activity (Mus musculus [12]): inactive
- Emax (Mu-type opioid receptor [3]): 107%
- Activity (Mus musculus [13]): Active
- Activity (Mus musculus [14]): inactive
- Activity (Mus musculus [15]): Active
- Emax [4]: 99.5%
- Activity (Mus musculus [16]): inactive
- half-life at 0.01 mol/L [17]: 18.5 days
- Activity (Mus musculus [18]): inactive
- ED50 (Mus musculus [19]): 0.0055 µmol/kg
- Emax [5]: 101%
- MPE (Mus musculus [20]): 73.1%
- EC50 [21]: 0.2 nM
- MPE (Mus musculus [22]): 56.6%
- ED50 (Mus musculus [23]): 0.0007 µmol/kg
- EC50 [24]: 214 nM
- EC50 (Mu-type opioid receptor [25]): 0.9 nM
- Activity (Mus musculus [26]): Active

SMILES: NC(=O)[C@@H]1CCCN1C(=O)[C@H]1CC(=O)NCCCC[C@@H](NC(=O)[C@@H](N)Cc2ccc(O)cc2)C(=O)NCC(=O)N[C@@H](Cc2ccc(F)cc2)C(=O)N1
- Activity (Mus musculus [27]): Active
- Activity (Mus musculus [28]): Active
- Emax (Mu-type opioid receptor [3]): 95.3%
- Emax [4]: 89.3%
- Activity (Mus musculus [29]): inactive
- Activity (Mus musculus [30]): inactive
- Activity (Mus musculus [31]): Active
- Activity (Mus musculus [32]): inactive
- Emax [5]: 110%
- Activity (Mus musculus [33]): Active
- Activity (Mus musculus [34]): inactive
- Activity (Mus musculus [35]): inactive
- Activity (Mus musculus [36]): Active

SMILES: NC(=O)[C@@H]1CCCN1C(=O)[C@H]1CC(=O)NCCCC[C@@H](NC(=O)[C@@H](N)Cc2ccc(O)cc2)C(=O)NCC(=O)N[C@@H](Cc2ccc3ccccc3c2)C(=O)N1
- Emax (Mu-type opioid receptor [3]): 98.6%
- Activity [37]: inactive
- Activity (Mus musculus [38]): inactive
- Activity (Mus musculus [39]): Active
- Activity (Mus musculus [40]): inactive
- Emax [5]: 110%
- Activity (Mus musculus [41]): Active
- Activity (Mus musculus [42]): Active
